Structure (SMILES): COc1cc(C(=O)c2c(C)c(OCCO)c3ccccn23)ccc1[N+](=O)[O-] [Example 80, [1-(2-Hydroxyethoxy)-2-methylindolizin-3-yl](3-methoxy-4-nitrophenyl)methanone]
- melting point: 142 °C
